Assay results: patent US20250353816A1, “QUINOLINES AS MODULATORS OF POLRMT” (Pretzel Therapeutics, Inc., priority 2024, published 2025)

Biological target: POLRMT (Homo sapiens (Human), UniProt O00411)
Assay: homogeneous TR-FRET assay of mitochondrial transcription (inhibition of POLRMT)
Type: biochemical
Settings: 7.5 nM POLRMT, 15 nM TFB2M, 30 nM TFAM, 60 minutes at 37° C.
Description: The inhibitory activity of the compounds of the present invention against POLRMT were determined by assays based on Bergbrede, T., et al., “An adaptable high-throughput technology enabling the identification of specific transcription modulators,” SLAC Discov., 22, 378-386 (2017).
The ability of some compounds of the present invention to inhibit POLRMT were determined in a homogeneous TR-FRET Assay using high-throughput screening in a 384-well plate format. This method is used to monitor the activity of mitochondrial transcription through measurement of its product, a 407 bp long RNA transcript. Detection of the product is facilitated by hybridization of two DNA-oligonucleotide probes to specific and adjacent sequences within the RNA product sequence. Upon annealing of the probes, two fluorophores are coupled directly to an acceptor nucleotide probe (ATTO647, 5′), or introduced via a coupled streptavidin with a biotinylated donor nucleotide probe (Europium cryptate) that is brought into sufficient proximity to serve as a fluorescence-donor-acceptor pair. Thus, a FRET signal at 665 nm is generated upon excitation at 340 nm.
Proteins used as transcription factors (POLRMT: NP_005026.3, TFAM: NP_003192.1, TFB2M: NP_071761.1) are diluted from their stocks to working concentrations of 1 μM, 20 μM and 4 μM respectively, in a dilution buffer containing 20 mM Tris-HCl (pH 8.0), 200 mM NaCl, 10% (v/v) glycerol, 1 mM Dithiothreitol (DTT), 0.5 mM EDTA.
DNA template is a pUC18 plasmid with the mitochondrial light strand promotor sequence (1-477) cloned between HindIII and BamHI sites. The DNA template is restriction linearized proximal to the promotor 3′-end (pUC-LSP).
The reaction mixture (10 uL) containing 7.5 nM POLRMT, 15 nM of TFB2M, 30 nM of TFAM, 0.5 nM of DNA template and 500 μM nucleotide triphosphate mix (NTPs) in a reaction buffer (containing 10 mM Tris-HCl (pH 7.5), 10 mM MgCl2, 40 mM NaCl, 10 mM DTT, 0.005% (w/v) Tween-20, 160 units/ml Rnase inhibitor and 0.1 mg/mL BSA) are dispensed to compounds in microplates, using a Thermo Multidrop® dispenser, and incubated at 37° C. in a VWR INCU-Line incubator for 60 minutes after mixing. No nucleotide triphosphate mix is added to negative control samples. Microplates with compounds to be tested in the assay are prepared from 10 mM compound stocks in 100% DMSO, equal amounts of DMSO without any compound are added to positive control and negative control samples.
During the incubation, a mix of the detection reagents is prepared in a buffer such that the enzymatic reaction is terminated due to chelating of Mg-ions and increased ionic strength, containing 50 mM Tris-HCl (pH 7.5), 700 mM NaCl, 20 mM EDTA, and 0.01% (w/v) Tween-20. Europium-streptavidin is pre-incubated with a 200-fold molar excess of a random sequence oligonucleotide to block unspecific binding of oligo, for two hours at ambient temperature in the dark. Afterwards, the blocked Europium-streptavidin is kept on ice until use.
At the end of the enzymatic reaction time, 5 μL detection oligo mix in the detection buffer is added, and assay plates are mixed and kept at ambient temperature for one hour, protected from light. The concentration of the Acceptor nucleotide oligo (e.g., ATTO647N-5′-[…]-3′ (SEQ ID NO: 1)) and Donor nucleotide oligo (e.g., bio-5′-AACACATCTCT(-bio)GCCAAACCCCA-bio-3′ (SEQ ID NO: 2)) in each assay well is 1 nM, and 3 nM, respectively.
After incubation with oligo mix, 5 μL of pre-blocked Europium-streptavidin reagent is dispensed to each assay well, assay plates are again mixed and kept at ambient temperature for one hour, protected from light.
The generated signal is measured with BMG Pherastar microtiter plate reader with a TRF light unit, using excitation at 340 nm, an integration time of 200 μs, and a delay time of […], before detection at 620 nm and 665 nm. The ratio of donor- and acceptor-fluorescence is used as a measure of the generated transcript product (i.e. enzymatic activity).

Chain of POLRMT (O00411 42-1230): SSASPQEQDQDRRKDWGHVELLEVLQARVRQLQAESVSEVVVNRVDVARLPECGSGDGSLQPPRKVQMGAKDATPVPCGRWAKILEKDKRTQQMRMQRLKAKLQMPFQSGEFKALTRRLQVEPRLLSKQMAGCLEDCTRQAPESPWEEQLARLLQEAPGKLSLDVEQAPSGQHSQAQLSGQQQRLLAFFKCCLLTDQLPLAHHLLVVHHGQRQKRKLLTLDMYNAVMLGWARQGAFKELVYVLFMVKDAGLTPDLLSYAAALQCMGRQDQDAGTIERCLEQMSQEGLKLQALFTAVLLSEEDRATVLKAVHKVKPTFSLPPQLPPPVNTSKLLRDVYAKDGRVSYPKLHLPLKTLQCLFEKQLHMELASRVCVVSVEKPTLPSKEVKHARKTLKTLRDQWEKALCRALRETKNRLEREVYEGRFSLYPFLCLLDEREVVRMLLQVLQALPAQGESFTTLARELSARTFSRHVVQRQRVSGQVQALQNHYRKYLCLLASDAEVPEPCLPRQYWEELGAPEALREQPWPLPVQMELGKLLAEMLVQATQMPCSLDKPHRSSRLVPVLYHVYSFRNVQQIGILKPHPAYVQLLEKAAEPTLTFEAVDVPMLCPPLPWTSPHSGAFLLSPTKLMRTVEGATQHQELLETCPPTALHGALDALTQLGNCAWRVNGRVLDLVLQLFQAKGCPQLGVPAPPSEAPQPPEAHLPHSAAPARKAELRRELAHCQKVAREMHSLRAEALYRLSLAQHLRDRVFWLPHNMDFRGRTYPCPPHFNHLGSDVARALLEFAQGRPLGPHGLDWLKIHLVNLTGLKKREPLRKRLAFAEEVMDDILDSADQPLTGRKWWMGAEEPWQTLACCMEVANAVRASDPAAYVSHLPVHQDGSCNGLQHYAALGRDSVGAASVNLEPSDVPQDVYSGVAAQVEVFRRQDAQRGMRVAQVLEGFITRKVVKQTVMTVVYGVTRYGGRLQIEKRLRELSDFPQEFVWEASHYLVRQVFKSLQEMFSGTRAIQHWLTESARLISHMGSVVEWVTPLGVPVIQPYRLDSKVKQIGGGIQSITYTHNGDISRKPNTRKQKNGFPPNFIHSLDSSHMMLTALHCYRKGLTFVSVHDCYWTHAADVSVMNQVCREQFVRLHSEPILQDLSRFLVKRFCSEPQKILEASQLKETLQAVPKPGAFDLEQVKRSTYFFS

Structure (SMILES)	IC50
Cc1ccccc1-c1ccnc2cc(CC(=O)O)ccc12 [Example 29, 2-(4-(o-tolyl)quinolin-7-yl)acetic acid]	97 µM
Cc1ccccc1-c1ccnc2cc(CC(=O)NC3CC3)ccc12 [Example 30, N-cyclopropyl-2-(4-(o-tolyl)quinolin-7-yl)acetamide]	91 µM
COCCc1ccc2c(-c3ccccc3C)ccnc2c1 [Example 31, 7-(2-methoxyethyl)-4-(o-tolyl)quinoline]	6 µM
Cc1ccccc1-c1ccnc2cc(CN(C)S(C)(=O)=O)ccc12 [Example 32, N-methyl-N-((4-(o-tolyl)quinolin-7-yl)methyl)methanesulfonamide]	24 µM
Cc1ccccc1-c1ccnc2cc(C#N)ccc12 [Example 33, 4-(o-tolyl)quinoline-7-carbonitrile]	74 µM
Cc1ccccc1-c1ccnc2cc(CC(=O)N3CCOCC3)ccc12 [Example 36, 1-morpholino-2-(4-(o-tolyl)quinolin-7-yl)ethan-1-one]	> 100 µM
Cc1ccccc1-c1ccnc2cc(CC(=O)N3CCN(C)CC3)ccc12 [Example 39, 1-(4-methylpiperazin-1-yl)-2-(4-(o-tolyl)quinolin-7-yl)ethan-1-one]	> 100 µM
CC(=O)N1CCN(C(=O)Cc2ccc3c(-c4ccccc4C)ccnc3c2)CC1 [Example 40, 1-(4-acetylpiperazin-1-yl)-2-(4-(o-tolyl)quinolin-7-yl)ethan-1-one]	> 100 µM
Cc1ccccc1-c1ccnc2cc(CC(=O)NCC3CC3)ccc12 [Example 41, N-(cyclopropylmethyl)-2-(4-(o-tolyl)quinolin-7-yl)acetamide]	91 µM
Cc1ccccc1-c1ccnc2cc(CC(N)=O)ccc12 [Example 42, 2-(4-(o-tolyl)quinolin-7-yl)acetamide]	> 100 µM
Cc1ccccc1-c1ccnc2cc(CC(=O)N(C)C)ccc12 [Example 43, N,N-dimethyl-2-(4-(o-tolyl)quinolin-7-yl)acetamide]	> 100 µM
CNC(=O)Cc1ccc2c(-c3ccccc3C)ccnc2c1 [Example 44, N-methyl-2-(4-(o-tolyl)quinolin-7-yl)acetamide]	> 100 µM
Cc1ccccc1-c1ccnc2cc(NC(C)C(=O)N3CCCCC3)ccc12 (stereo not shown) [Example 45, 1-(piperidin-1-yl)-2-((4-(o-tolyl)quinolin-7-yl)amino)propan-1-one]	4 µM
Cc1ccccc1-c1ccnc2cc(NC(C)C(=O)N3CCOCC3)ccc12 (stereo not shown) [Example 46, 1-morpholino-2-((4-(o-tolyl)quinolin-7-yl)amino)propan-1-one]	8 µM
Cc1ccccc1-c1ccnc2cc(NC(C)C(=O)N(C)C)ccc12 (stereo not shown) [Example 47, N,N-dimethyl-2-((4-(o-tolyl)quinolin-7-yl)amino)propanamide]	26 µM
Cc1ccccc1-c1ccnc2cc(C(C)OCC(=O)O)ccc12 (stereo not shown) [Example 54, 2-(1-(4-(o-tolyl)quinolin-7-yl)ethoxy)acetic acid]	> 100 µM
Cc1ccccc1-c1ccnc2cc(C(C)OCC(=O)N(C)C)ccc12 (stereo not shown) [Example 55, N,N-dimethyl-2-(1-(4-(o-tolyl)quinolin-7-yl)ethoxy)acetamide]	> 100 µM
Cc1ccccc1-c1ccnc2cc(C(C)OCC(N)=O)ccc12 (stereo not shown) [Example 56, 2-(1-(4-(o-tolyl)quinolin-7-yl)ethoxy)acetamide]	> 100 µM
CNC(=O)COC(C)c1ccc2c(-c3ccccc3C)ccnc2c1 (stereo not shown) [Example 57, N-methyl-2-(1-(4-(o-tolyl)quinolin-7-yl)ethoxy)acetamide]	> 100 µM
